Reference: patent US11384071B2, “Inhibitors of mechanotransduction to treat pain and modulate touch perception” (Max-Delbrück-Centrum für Molekulare Medizin in der …, priority 2016, dated 2022)

Experiments:
[1] = system: RA-currents in mechanoreceptor sensory neurons; assay: Cell soma indentation, RA-mechanosensitive currents in sensory neurons; type: cell-based, mouse
Experimental: Whole-cell, patch-clamp recordings were conducted as previously described 5-7, using patch pipettes with a tip resistance of 3-6 MΩ, filled with a solution of: 110 mM KCl, 10 mM NaCl, 1 mM MgCl2, 1 mM EGTA and 10 mM HEPES, adjusted to pH 7.3 with KOH. (For experiments on DRG neurons 10 mM QX-314 was added to the pipette to block voltage-gated sodium channels 8 Extracellular solutions contained 140 mM NaCl, 4 mM KCl, 2 mM CaCl2, 1 mM MgCl2, 4 mM glucose, 10 mM HEPES, adjusted to pH 7.4 with NaOH. A Zeiss 200 inverted microscope and an EPC-10 amplifier in combination with Patchmaster software was used, data was analyzed using Fitmaster software (HEKA Electronik GmbH, Germany). Pipette and membrane capacitance were compensated using the auto function of Patchmaster, series resistance was compensated by at least 60% to minimize voltage errors. Mechanical stimuli were applied using a polished glass probe driven by the MM3A micromanipulator (Kleindiek Nanotechnik, Germany). Mechanical stimuli were applied by either; indenting the cell soma or by culturing cells on elastomeric pillar arrays and applying the stimulus to the cell-substrate interface by deflecting an individual pilus.
We evaluated the effects of OB-1 and OB-2 on mechanosensitive currents in acutely cultured mouse sensory neurons. […]

Podocin = target: T1, Podocin (Mus musculus, UniProt Q91X05); assay: BiFC assay of podocin self-association; type: cell-based
T1 construct: expressed in transfected cells; host or cells: HEK293 (general statement on the BiFC assay)
Experimental: FIG. 8: Effects of STOML3 modulating molecules on other Stomatin-domain proteins. (a) BiFC signal development observed when cells were transfected with Stomatin-VC/-VN, STOML1-VC/-VN, STOML2-VC/-VN, STOML3-VC/-VN or Podocin-VC/-VN expression constructs respectively. […] (b) OB-1 was tested at two different concentrations (2 μm and 20 μm) using the BiFC assay where wild type STOML3 was used as both bait and prey.
In mammals STOML3 belongs to a family of five structurally conserved membrane proteins, including stomatin, STOML1, STOML2, and podocin^10,12-16, all of which self-associate via their stomatin-domain (FIG. 8a)^10. Self-association of stomatin-domain proteins can be monitored in HEK293 cells using Bimolecular Fluorescence Complementation (BiFC) whereby N- and C-terminal halves of the YFP molecule are tagged to the prey and bait protein STOML3^2,17 (FIG. 1a). Irreversible association of the YFP fragments produces fluorescence that increases linearly over time (FIG. 1b).

[2] = system: mice with chronic constriction injury; assay: Chronic constriction injury (CCI) model, paw withdrawal thresholds to von Frey filaments; type: in vivo, mouse
Source text: In deeply anaesthetized mice using isoflurane delivered in 100% 02 (Univentor 410 Anaesthesia unit; Univentor, Malta), four loose silk (5/0; Catgut GmbH Markneukirchen) ligatures were placed around the sciatic nerve at the level of the right mid-thigh as described previously (Wetzel et al., 2007).
Mice were allowed to habituate to the testing apparatus (acrylic chambers 10×10 cm in size, suspended above a wired mesh grid) one hour prior to behavioral testing. Only once the subject was at rest and not moving, calibrated von-Frey hair monofilaments (Aesthesio® set of 20 monofilaments, Ugo Basil) were applied to the plantar surface of the hind paw in order to deliver target forces from 0.008 grams to 4 grams increasing in an approximately logarithmic scale. A single stimulus indicated by a slight bending of the filament lasted for two seconds unless the mouse withdrew its paw. In order to measure mechanosensitivity the up-and-down method described by Chaplan^13 was adapted as follows: Testing began with a filament delivering a target force of 0.4 g, but filaments were applied three times. A positive response was noted if the subject withdrew the paw to all three filament applications, so that the successively smaller filament was presented next. […] Paw withdrawal thresholds were calculated as median of 23 to 30 determined turning points of the particular force stimuli applied to the subject.
Drug injections of OB-1 or DMSO alone were dissolved in Ringer's solution (in mM: 135 NaCl, 5 KCl, 5 HEPES, 1.8 CaCl2), 1 MgCl2) to make the OB-1 and vehicle solution. Injections were made 3 hours prior to behavioral testing, approximately 20 μl solution, 250 pmol per paw, was injected into the palm with a Hamilton syringe, gauge 33. During the injection procedure, the mouse was anaesthetized with isoflurane (1.5 to 2.5% in 02). The injection procedure lasted around 3 minutes after which the mouse was moved to the home cage for recovery before behavioral testing.
We next interrogated whether local application of OB-1 can ameliorate tactile-evoked pain behavior in neuropathic models. […] We decided to test this idea more directly by testing the effects of local OB-1 on the mechanical sensitivity of Stoml3^−/− mice with CCI. […] Off-target effects are an issue for any biologically active small molecule. We therefore tested the effects of 20 μM OB-1 in a commercially available in vitro pharmacology panel (www.cerep.fr) consisting of 79 receptors and ion channels.

T1 sequence (Q91X05 whole entry): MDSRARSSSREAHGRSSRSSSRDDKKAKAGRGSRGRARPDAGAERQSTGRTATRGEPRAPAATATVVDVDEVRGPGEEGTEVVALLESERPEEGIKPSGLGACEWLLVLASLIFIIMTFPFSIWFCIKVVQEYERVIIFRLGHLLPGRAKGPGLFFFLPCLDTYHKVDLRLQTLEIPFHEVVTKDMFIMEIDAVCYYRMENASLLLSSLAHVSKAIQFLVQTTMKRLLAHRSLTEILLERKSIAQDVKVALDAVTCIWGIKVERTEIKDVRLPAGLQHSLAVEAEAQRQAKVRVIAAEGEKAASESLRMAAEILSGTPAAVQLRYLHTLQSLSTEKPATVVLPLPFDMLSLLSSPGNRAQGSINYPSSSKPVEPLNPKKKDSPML

oligomerization of Podocin (BiFC) (Podocin): does not affect
SMILES: CCOC(=O)c1c(-c2ccccc2)oc2ccc(Oc3c([N+](=O)[O-])ncn3C)cc12 [OB-1, Ethyl 5-((1-methyl-4-nitro-1H-imidazol-5-yl)oxy)-2-phenylbenzofuran-3-carboxylate]
inactivation time constant (τ2) of mechanically-gated currents [1]: slowed
neurons displaying no mechanosensitive current ([1]; 12/21 neurons, control 21%): ~60%
effect of a single dose after 24 h ([2]; CCI): absent
time of maximal effect after a single local injection ([2]; CCI): 3 h
established hypersensitivity ([2]; CCI, applied to the contralateral paw): no reversal
half-maximal effective dose (ED50) ([2]; CCI, paw withdrawal threshold, local injection): 4.42 µM
half-maximal effective dose (ED50) ([2]; CCI, per paw): approximately 20 pmol
paw withdrawal threshold ([2]; Stoml3−/− mice with CCI, local treatment of neuropathic paws): no change
mechanical hypersensitivity ([2]; female mice with CCI, similar extent to males): reversed
tactile-evoked pain or allodynia ([2]; wild type mice, CCI 6-21 days after induction, intraplantar ipsilateral): complete reversal
